Common to all, as to assay type: cell-based
For assay [1], the system named is MDA-MB-231 cells. Nature of the assay: MTT cell viability assay, MDA-MB-231. As to conditions: Homo sapiens; MDA-MB-231, MTT, high FOXC2 expression. The method, then: (§1) It was hypothesized that the specific binding of MC-1-F2 can lead to its specific cellular activity against cancer cells with high FOXC2 expression. This hypothesis was tested by evaluating MC-1-F2's cellular activity on cell lines with different FOXC2 expression levels: MCF-7, BT549, and MDA-MB-231. […] However, further studies are still underway. The specificity in cellular activity of MC-1-F2 was further evaluated in the form of a soft-agar colony forming assay to determine if MC-1-F2 was able to inhibit in vitro tumorigenicity of cancer cells in a FOXC2 expression-dependent manner. […] Further testing is underway in various breast cancer cell lines with different FOXC2 expression levels.
Cell viability was assessed by MTT (3-(4,5-Dimethylthiazol-2-yl)-2,5-Diphenyltetrazolium Bromide) assay. 1×10^4 cells were seeded on 48-well cell culture plate, and were incubated for at least 24 hours prior to drug treatment. The MTT reagent (Fisher Scientific) was added to the culture medium 3 hours prior to the end of compound incubation. The reaction took place in the 37° C. incubator with 5% CO2 for 3 hours. Cell culture medium was then removed from the wells. Cells with the insoluble purple formazan were lysed with DMSO for 10 mins at room temperature, 0.5 ml per well. The solution was aliquot to 96-well plate for absorbance reading at 570 nm using a plate reader.
In general terms: Tetrazolium assays rely on reduction of a dye to a coloured formazan, in cell work by metabolically active cells.

Assay [2] deals with MDA-MB-231 cells. Nature of the assay: Soft-agar colony forming assay, MDA-MB-231. As to conditions: MDA-MB-231, soft agar, 20 μM. On the procedure: as §1
Soft-agar colony-formation assay was performed in 6-well plates. 5×10^3 cells were re-suspended into 1.5 mL 0.3% agarose-DMEM mixture, and seeded onto the 0.5% agarose-DMEM base layer. FBS-supplemented DMEM medium (0.2 mL) containing the compound of determined concentrations was added on the top and changed every 3 days. After 10 days incubation in 37° C. incubator with 5% CO2, 0.5 mL of 0.005% crystal violet solution was added to the top of the agarose gel and incubated overnight. The total number of colonies per well that were >100 microns in size when viewed under a simple microscope were counted. Light microscopy images were captured under 20× magnification.

The target in another assay is T1, FOXC2 (Homo sapiens, UniProt Q99958).
T1 construct: endogenous in cells; host or cells: MDA-MB-231
T1 sequence (Q99958 1-501): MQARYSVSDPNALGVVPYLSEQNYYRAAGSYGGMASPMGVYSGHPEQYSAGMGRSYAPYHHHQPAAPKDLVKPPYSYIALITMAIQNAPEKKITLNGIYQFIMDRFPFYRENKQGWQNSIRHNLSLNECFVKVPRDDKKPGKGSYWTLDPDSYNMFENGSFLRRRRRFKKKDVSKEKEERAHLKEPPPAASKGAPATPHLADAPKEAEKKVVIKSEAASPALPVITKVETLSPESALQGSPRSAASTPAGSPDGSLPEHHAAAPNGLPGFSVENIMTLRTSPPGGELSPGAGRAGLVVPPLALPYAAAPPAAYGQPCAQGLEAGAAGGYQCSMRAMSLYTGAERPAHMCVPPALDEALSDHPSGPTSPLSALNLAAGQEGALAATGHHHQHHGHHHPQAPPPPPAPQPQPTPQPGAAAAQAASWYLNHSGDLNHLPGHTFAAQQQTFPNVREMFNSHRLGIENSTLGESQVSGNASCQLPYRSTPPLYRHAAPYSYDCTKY
Put plainly: Western blot of FOXC2 protein level and nuclear localization in MDA-MB-231. As to conditions: MDA-MB-231, 20 μM. From the text: As a transcription factor, FOXC2 needs to localize into the nucleus to promote the transcription of target genes. Therefore, a small molecule that blocks nuclear localization of FOXC2 is expected to inhibit EMT. […] Putative kinases that phosphorylate FOXC2 have been proposed (Werden et al., 2016; Ivanov et al., 2013; Golden & Cantley, 2014). It is possible that MC-1-F2 disrupts the protein-protein interaction between FOXC2 and its kinase, resulting in the decease of FOXC2 nuclear localization. Investigation into the exact mechanism by which MC-1-F2 inhibits FOXC2 phosphorylation and nuclear localization is underway.
50 μg of total protein per sample was incubated with 4× loading buffer at 100° C. for 5 min. Protein samples were then loaded into a polyacrylamide gel and subjected to SDS-PAGE. Resolved proteins were then transferred by a wet transfer method to a PVDF membrane at 100 V for 1 hour using a BioRad Mini Trans-Blot Electrophoresis Transfer Cell. Upon the completion of wet transfer, the membrane was then blocked with 5% (w/v) fat-free milk in 1× Tris-buffered saline/0.1% (v/v) Tween-20 (TBS-T) for at least 1 hour. Then incubated with the respective primary antibodies diluted in 5% BSA in 1×TBST at 4° C. overnight. The following day exposed to 1:1000 dilution of anti-mouse or anti-rabbit HRP-conjugated secondary antibodies in 5% (w/v) fat-free milk in 1×TBS-T for 1 hour at room temperature. The probed proteins were then detected for chemiluminescent signal using SuperSignal Chemiluminescent Substrate (PIERCE). Pierce antibodies: B-actin, and all other antibodies used are from cell signaling. MG132 treatment was added to cells (0.5 μM) for 1-hour incubation prior to compound treatment, no more than 24 hours total exceeded during MG132 incubation.
In general terms: Immunoblotting shows a protein as a band on a membrane.

The subject of a further assay is LNCaP cells. Nature of the assay: Transwell invasion assay, LNCaP. As to conditions: androgen-dependent, low FOXC2 expression, 20 μM, 24 hours. The method, then:
Following determination of both inhibition of EMT and CSC properties, the inhibition of the migratory and invasive capabilities of both cell lines following MC-1-F2 treatment was examined through the use of a transwell invasion assay.
Matrigel invasion chambers (Corning) were allowed to come to room temperature and allowed to rehydrate for 2 hours in a cell incubator. Cells were treated 24 hours prior to assay and starved in 2% FBS in DMEM for 2 hours prior to assay. A cell suspension containing 5×10^4 cells/mL was prepared. Chemoattractant (DMEM+10% FBS) was added to the bottom of the wells. Using forceps, the inserts were transferred inside the wells and 0.5 mL of cell suspension was immediately added. The chambers were incubated for 22 hours in a humidified tissue culture incubator. After the 22 hours, the non-invading cells were removed by scrubbing the surface of the membrane. The cells were fixated with 4% formaldehyde solution for 2 minutes at room temperature. Followed by permeabilization of the membrane with 100% MeOH for 20 minutes at room temperature. The cells were stained with 0.5% crystal violet solution and several images of the wells were then taken and total number of cells counted for analysis.

As usually defined, the EC50 is the concentration giving half of the maximal effect. A high value points to a need for much substance.

Molecules are shown by their SMILES.

On to `N=C(N)NCCCCNc1nc(Nc2ccc(Oc3ccccc3)cc2)nc(N2CCN(c3nc(N)nc(Nc4ccc(N5CCOCC5)cc4)n3)CC2)n1` [MC-1-F2], for which, in the assay with MDA-MB-231 cells [1], the EC50 is roughly 20 µM. In the assay with MDA-MB-231 cells [2], the colony forming activity entry is “strong inhibition of colony forming activity”. Besides, at FOXC2 (24 hours, absence of MG132), the FOXC2 protein level entry was “decrease in FOXC2 protein level”. Moreover, the “FOXC2 protein level in presence of MG132” value at FOXC2 (24 hours, with 26S proteasome inhibitor MG132) was “prevented by incubating the cells with a 26S proteasome inhibitor, MG132”. Moreover, on FOXC2 (48 hours, cytosolic and nuclear fractions), the “nuclear localization of FOXC2” value is listed as “decrease in nuclear localization of FOXC2”. Moreover, in the assay on LNCaP cells, the “number of invasive cells (transwell invasion)” value is “saw to change in the number of invasive cells”.

These data come from patent US10814010B2, “FOXC2 inhibitor and methods of use thereof” (The Board of Regents of The University of Texas System, priority 2018, dated 2020).
